Data: ChEMBL document CHEMBL1146267, “2,6-Disubstituted N-arylsulfonyl piperidines as gamma-secretase inhibitors” (Bioorg Med Chem Lett, 2007)

These compounds were tested against Gamma-secretase (assay: Inhibition of gamma secretase-mediated amyloid-beta peptid […]).
Assay type: protein-complex assay, Homo sapiens

Row | IC50 [µM] | SMILES
1 | 0.27 | O=C(NCCCn1ccnc1)OCC1CCc2ccc(F)cc2N1S(=O)(=O)c1ccc(Cl)cc1 (configuration not stated)
2 | 2.5 | CC1CCC2CCCCC2N1S(=O)(=O)c1ccc(Cl)cc1 (configuration not stated)
3 | 0.68 | O=C(OCC1CCc2ccc(F)cc2N1S(=O)(=O)c1ccc(Cl)cc1)N1CCCC1 (configuration not stated)
4 | 15.4 | O=C(NCCCn1ccnc1)OCC1CCCCN1S(=O)(=O)c1ccc(Cl)cc1 (configuration not stated)
5 | 0.003 | O=C(OC[C@H]1CCC[C@@H](c2cccc(F)c2)N1S(=O)(=O)c1ccc(Cl)cc1)N1CCC(N2CCCCC2)CC1 [listing 1 of 2 here]
6 | 0.083 | O=C(OC[C@H]1CCC[C@@H](c2cccc(F)c2)N1S(=O)(=O)c1ccc(Cl)cc1)N1CCC(N2CCCCC2)CC1 [listing 2 of 2 here]
7 | 0.071 | CC1CN(C2CCCCC2)CCN1C(=O)OC[C@H]1CCC[C@@H](c2ccccc2)N1S(=O)(=O)c1ccc(Cl)cc1 (mixture of isomers)
8 | 0.037 | CC1CN(CC2CC2)CCN1C(=O)OC[C@H]1CCC[C@@H](c2ccccc2)N1S(=O)(=O)c1ccc(Cl)cc1 (mixture of isomers)
9 | 0.026 | CC1CN(CC2CC2)CCN1C(=O)OC[C@H]1CCC[C@@H](c2cccc(F)c2)N1S(=O)(=O)c1ccc(Cl)cc1 (mixture of isomers)
10 | 0.013 | CC1CC(N2CCCCC2)CCN1C(=O)OC[C@H]1CCC[C@@H](c2cccc(F)c2)N1S(=O)(=O)c1ccc(Cl)cc1 (mixture of isomers)
11 | 0.007 | CC1CC(N2CCCCC2)CCN1C(=O)OC[C@H]1CCC[C@@H](c2cc(F)cc(F)c2)N1S(=O)(=O)c1ccc(Cl)cc1 (mixture of isomers)
12 | 0.219 | C[C@@H]1CCC[C@H](COC(=O)N2CCC(N(C)C3CCN(C)CC3)CC2)N1S(=O)(=O)c1ccc(Cl)cc1 (racemic)
13 | 0.076 | C[C@@H]1CCC[C@H](COC(=O)N2CCC(N3CCCCC3)CC2)N1S(=O)(=O)c1ccc(Cl)cc1 (racemic)
14 | 0.159 | CC[C@@H]1CCC[C@H](COC(=O)N2CCC(N(C)C3CCN(C)CC3)CC2)N1S(=O)(=O)c1ccc(Cl)cc1 (racemic)
15 | 4.77 | O=C(OC[C@H]1CCC[C@@H](Cc2ccccc2)N1S(=O)(=O)c1ccc(Cl)cc1)N1CCC(N2CCCCC2)CC1 (racemic)
16 | 0.017 | O=C(OC[C@H]1CCC[C@@H](c2ccccc2F)N1S(=O)(=O)c1ccc(Cl)cc1)N1CCN(C2CCCCC2)CC1 (racemic)

Row | IC50 [µM] | SMILES
17 | 0.038 | O=C(OC[C@H]1CCC[C@@H](c2cccc(F)c2)N1S(=O)(=O)c1ccc(Cl)cc1)N1CCN(C2CCCCC2)CC1 (racemic)
18 | 0.011 | O=C(OC[C@H]1CCC[C@@H](c2cccc(F)c2)N1S(=O)(=O)c1ccc(Cl)cc1)N1CCC(N2CCCCC2)CC1 (racemic)
19 | 0.028 | O=C(OC[C@H]1CCC[C@@H](c2cc(F)ccc2F)N1S(=O)(=O)c1ccc(Cl)cc1)N1CCN(C2CCCCC2)CC1 (racemic)
20 | 0.036 | O=C(OC[C@H]1CCC[C@@H](c2cc(F)cc(F)c2)N1S(=O)(=O)c1ccc(Cl)cc1)N1CCN(C2CCCCC2)CC1 (racemic)
21 | 0.004 | O=C(OC[C@H]1CCC[C@@H](c2cc(F)cc(F)c2)N1S(=O)(=O)c1ccc(Cl)cc1)N1CCC(N2CCCCC2)CC1 (racemic)
22 | 0.008 | O=C(OC[C@H]1CCC[C@@H](c2ccc(F)c(F)c2)N1S(=O)(=O)c1ccc(Cl)cc1)N1CCC(N2CCCCC2)CC1 (racemic)
23 | 12.3 | CN1CCC(N(C)C2CCN(C(=O)OC[C@H]3CCC[C@@H](Cc4ccccc4)N3S(=O)(=O)c3ccc(Cl)cc3)CC2)CC1 (racemic)
24 | 0.01 | O=C(OC[C@H]1CCC[C@@H](c2cc(F)ccc2F)N1S(=O)(=O)c1ccc(Cl)cc1)N1CCC(N2CCCCC2)CC1 (racemic)
25 | 0.026 | O=C(OC[C@H]1CCC[C@@H](c2ccc(F)c(F)c2)N1S(=O)(=O)c1ccc(Cl)cc1)N1CCN(C2CCCCC2)CC1 (racemic)
26 | 0.067 | O=C(OC[C@H]1CCC[C@@H](c2ccccc2)N1S(=O)(=O)c1ccc(Cl)cc1)N1CCN(C2CCCCC2)CC1 (racemic)
27 | 0.008 | O=C(OC[C@H]1CCC[C@@H](c2ccccc2F)N1S(=O)(=O)c1ccc(Cl)cc1)N1CCC(N2CCCCC2)CC1 (racemic)
28 | 0.016 | O=C(OC[C@H]1CCC[C@@H](c2ccccc2)N1S(=O)(=O)c1ccc(Cl)cc1)N1CCC(N2CCCCC2)CC1 (racemic)
29 | 6.42 | C[C@@H]1CCC[C@@H](COC(=O)NCCCn2ccnc2)N1S(=O)(=O)c1ccc(Cl)cc1 (relative stereo)
30 | 0.57 | C[C@@H]1CCC[C@H](COC(=O)NCCCn2ccnc2)N1S(=O)(=O)c1ccc(Cl)cc1 (relative stereo)
31 | 1.97 | C[C@@H]1CCC[C@H](COC(=O)N2CCCC2)N1S(=O)(=O)c1ccc(Cl)cc1 (relative stereo)
32 | 10.6 | C[C@@H]1CCC[C@@H](COC(=O)N2CCCC2)N1S(=O)(=O)c1ccc(Cl)cc1 (relative stereo)
